Patent publication US6057153A, “Stabilized external guide sequences” (Yale University, priority 1997, dated 2000)
“Also recorded” adds a separate entry of the source.

Key:
2.1 kb HBV RNA = test: RNAse P cleavage of large target RNA; format: biochemical; details: 250 nM EGS, 30 minutes at 37° C.
Method: To test cleavage with a longer target RNA molecules, different reaction conditions were used. Reactions in a total volume of 10 μl contained 40 mM Tris-HCl (pH 7.4), 10 mM MgCl2, 1 mM spermidine 10 mM dithiothreitol, 0.05 μg/μl nuclease-free bovine serum albumin, 0.01% (v/v) Triton-X100™, 0.8 Units/μl RNASIN, 0.2 mM ATP, 0.2 mM GTP, 0.2 mM UTP, 0.2 mM CTP, 0.1 μCi/μl [a^32 P] CTP, 2 mM m^7 G(5')pppG, 0.06 μg/μl yeast RNA, 25 mM KCl, 3 Units T7 RNA polymerase, 250 nM EGS, 1 μl of human RNAse P and 3 ng/μl linearized plasmid. Reactions were initiated by the addition of linearized plasmid and incubated for 30 minutes at 37° C. Reactions were terminated by the addition of 10 μl of 80% formaemide, 10 mM EDTA, 0.1% bromphenol blue. After heating for 2 minutes at 90° C., samples were electrophoresed for 2 hours at 48 watts on a 5% denaturing polyacrylamide gel. After vacuum drying for 1 hour at 60° C., the gel was analyzed by phosphoimaging.
Cleavage of Large Target RNA: Plasmid pAYW2.1, containing the sequence that encodes the 2.1 kb RNA of the AYW strain of HBV, was linearized by digestion with Not I, and then transcribed by T7 RNA polymerase in the presence of [α^32 P]CTP. Labeled transcripts were incubated for 30 minutes at 37° C. with RNase P in the presence of various EGS molecules. Reaction products were subjected to denaturing polyacrylamide gel electrophoresis, and analyzed by phosphoimaging. EGS-mediated cleavage at the targeted site of the 2.1 kb transcript produces cleavage products that are approximately 1.7 and 0.4 kb in length.

[1] = Nuclease resistance studies in 50% human serum; format: in vitro ADME; details: 37° C.
Method: Nuclease resistance studies--100 μl of EGS oligonucleotides (5 μM), containing a trace of 5'-end-labeled oligomers, were incubated at 37° C. for different time periods (0-24 h) with 50% human serum (Sigma, S-7023). 20 μl aliquots were diluted to 100 μl with RNase-free water, phenol/chlorform extracted, and ethanol precipitated. The residue was resuspended in 10 μl of TE and 10 μl of 2× gel loading buffer containing 98% formamide, 10 mM1 EDTA and 0.1% bromophenol blue. The mixture was heated to 85° C. for 1 min, quickly cooled on ice and frozen at -20° C. prior to electrophoresis on 15% polyacrylamide/8 M urea gels. Gels were subsequently scanned on a Molecular Dynamics PHOSPHORIMAGER™, and the stability profile for each, oligomer was estimated from the ratio of the remaining intact materials versus all radio-labeled materials (intact oligomers plus degradation products). Stability studies of non radio-labeled EGS oligomers using capillary gel electrophoresis were also carried out according to the method of Leeds et al. (15).

Substrate RNA (SUB-156) = test: RNase P-mediated cleavage assay, single turnover conditions; format: biochemical, hepatitis B virus (HBV); details: 200 nM EGS, 20 nM substrate, saturating RNase P, 60 min
Method: RNase P-mediated cleavage assay--Human RNase P was purified from HeLa cells according to the published procedures (14). Substrate RNA (SUB-156, FIG. 24) was 5'-end labeled using T4 polynucleotide kinase and [γ-^32P]ATP. The labeling mixture was then heated to 85° C. for 1 min, diluted with RNase-free water, and purified by a MICROSPIN™ G-25 column (Pharmacia) according to the manufacturer's instructions. Cleavage reactions were conducted in a reaction buffer containing 50 mM Tris-HCl (pH 7.4), 25 mM KCl, 10 mM MgCl2 and 0.1 mM EDTA. EGS oligomers and ^32 p-5'-end-labeled RNA substrate were heated in the reaction buffer without MgCl2 to 85° C. for 1 min and then slowly cooled to room temperature. The cleavage reaction was initiated by adding 2 μl of 100 mM MgCl2 and 3 μl of RNase P (enzyme activity for this preparation: cleavage of 0.035 pmol of tRNA^Tyr precursor min^-1 μl^-1). The final reaction volume was 20 μl and the reaction was incubated at 37° C. for 60 min. […] For each sample, cleavage reactions were performed in duplicates and the average values were used. To ensure reproducibility, cleavage assays for each EGS were also repeated in two separate experiments. The all-RNA EGS-159 was used as the reference sample and its cleavage values were counted as 100%. Cleavage percentages of all other EGSs were normalized against EGS-159 (Rel. Cleavage %) except in FIG. 30 and FIG. 31 where absolute cleavage percentages (Abs. Cleavage %) were plotted.
For EGS-single turnover conditions, the final concentrations were 200 nM for EGS and 20(nM for the RNA substrate. For EGS-multiple turnover conditions, the final concentrations were 200 nM for the RNA substrate and 40 nM for EGS. When determination of the time-course was required, the reaction volume was increased to 40 μl. Aliquots of 5-8 μl were removed from the reaction mixture at different time points (e.g. 1, 5, 15, 30 and 60 min), quenched in formamide loading buffer, and loaded onto 15% polyacrylamide/8 M urea gels. Quantitation of the cleavage product and the remaining RNA substrate was achieved using a Molecular Dynamics PHOSPHORIMAGER™.
General considerations--To select lead nuclease-resistant oligonucleotide prototypes as external guide sequences among many possible modifications, a reliable yet rapid in vitro cleavage assay for routine screening was used. Human RNase P, a ribonucleoprotein, is composed of a 340-nt H1 RNA component and one or more proteins (for recent review, see Ref. 16). A 3-step screening strategy was devised: 1) All analogues once synthesized were tested by a fast qualitative cleavage assay under single turnover conditions with 10-fold excess of EGS over target RNA substrate for 60 min. […] This was the best cleavage condition used in this study. Any analogue with a reasonable activity (e.g. more than 5% cleavage) would not be missed, under these circumstances, due to the high detection sensitivity provided by PHOSPHORIMAGER™. 2) Promising analogues were then assayed for stability in 50% human serum.

[2] = system: short substrate (SEQ ID NO. 1) derived from the full-length pre-genomic HBV RNA; test: RNAse P cleavage assay, short substrate; format: biochemical; details: short substrate, EGS 200 nM, 37° C., 1 hour
Method: RNAse P Cleavage Assays: Cleavage reactions were carried out generally according to the procedure described by Yuan et al., Proc. Natl. Acad. Sci., USA, 89:8006-8010, (1992), which is hereby incorporated by reference. Briefly, short substrate reactions were made up to a total volume of 31μ in 50 mM Tris-HCl pH 7.4, 10 mM MgCl2, 25 mM KCl, 0.1 mM EDTA, […] at 37° C. for 1 hour. After incubation, the reaction solution was mixed with loading buffer (98% formamide, 10 mM EDTA, 0.025% bromophenol blue). The cleaved substrate was separated from the uncleaved by electrophoresis on a 15% acrylamide gel containing 7 M urea. The bands were quantified on a Molecular Dynamics PHOSPHORIMAGER™.
The bands corresponding to the precursor RNA substrate and the resulting two cleavage products were counted from the dried gel using a BETASCOPE™ gel analyzer (Betagen).
RNAse P was purified by DEAE SEPHAROSE™ chromatography and glycerol density gradient centrifugation essentially as described by Bartkiewicz et al., Genes Dev. 3:488-499 (1989), which is hereby incorporated by reference.
The percentage of precursor RNA substrate remaining in either assay was plotted as function of the EGS concentration and the catalytic efficiency expressed as kcat /Km (where kcat is the rate constant of cleavage and Km is the Michaelis constant), the second order rate constant for the reaction of free EGS and substrate. Following the methods of Heidenreich and Eckstein (J. Biol. Chem., 267:1904-1909 (1992), the efficiency of the cleavage reaction, kcat /Km), was determined using the formula
The EGS constructs described in Example 2 were assayed using the RNAse P cleavage assays described in Example 1 to determine the efficiency of the cleavage reaction. FIG. 1 depicts the model system using a short substrate which was used to evaluate the ability of modified EGS molecules in inducing RNase P-mediated target cleavage. The sequence of the short substrate (SEQ ID NO. 1) was derived from the full-length pre-genomic HBV RNA.

EGS H62: all-RNA EGS, SEQ ID NO. 3, prepared by T7 RNA polymerase transcription (guide CGAUGAAGGUUCGAAUCCUUCCCAGGAC; unmodified RNA)
RNase P-mediated cleavage of 2.1 kb HBV RNA (2.1 kb HBV RNA): Complete cleavage

EGS-364: EGS-356 with disrupted T-stem, SEQ ID NO. 34 (guide AGAUGAUACACUGUUCGAAUGGUACACGCCGCN; chemistry not given here)
stability in 50% human serum ([1]; experiment of 2 h): did not change the results

EGS-380: C56 in the T-loop substituted with rA, SEQ ID NO. 40 (guide AGAUGAUAGAAGGUUAGAAUCCUUCACGCCGC; Riboadenosine at tRNA position 56 of T-loop, rest of chemistry not given here)
RNase P-mediated cleavage activity compared to the all-RNA control (Substrate RNA (SUB-156)): effectively substituted

EGS-381: C56 in the T-loop substituted with rG, SEQ ID NO. 41 (guide AGAUGAUAGAAGGUUGGAAUCCUUCACGCCGC; Riboguanosine at tRNA position 56 of T-loop, rest of chemistry not given here)
RNase P-mediated cleavage activity compared to the all-RNA control (Substrate RNA (SUB-156)): effectively substituted

EGS-399: U54 replaced with riboadenosine, SEQ ID NO. 45 (AGAUGAUAGAAGGAUAGAAUCCUUCACGCCGC; guide RNA; Riboadenosine at tRNA position 54, rest of chemistry not given here)
fraction degraded in 50% human serum ([1]; 24 h): 16%
RNase P-mediated cleavage activity compared to the all-RNA control (Substrate RNA (SUB-156)): promising

EGS-400: no RNA residues, remaining riboadenosines replaced by deoxynucleotides, SEQ ID NO. 47 (AGAUGAUAGAAGGUUAGAAUCCUUCACGCCGC; guide RNA; No RNA residues, remaining riboadenosines replaced by deoxynucleotides, other modifications not given here)
RNase P-mediated cleavage activity compared to the all-RNA control (Substrate RNA (SUB-156)): Significant reduction in activity

EGS-404: no RNA residues, remaining riboadenosines replaced by deoxynucleotides, SEQ ID NO. 48 (AGAUGAUAGAAGGAUAGAAUCCUUCACGCCGC; guide RNA; No RNA residues, remaining riboadenosines replaced by deoxynucleotides, other modifications not given here)
RNase P-mediated cleavage activity compared to the all-RNA control (Substrate RNA (SUB-156)): Significant reduction in activity

EGS-405: no RNA residues, remaining riboadenosines replaced by deoxynucleotides, SEQ ID NO. 49 (AGAUGAUAGAAGGTUAGAAUCCUUCACGCCGC; guide RNA; No RNA residues, remaining riboadenosines replaced by deoxynucleotides, other modifications not given here)
RNase P-mediated cleavage activity compared to the all-RNA control (Substrate RNA (SUB-156)): Significant reduction in activity

EGS-406: no RNA residues, remaining riboadenosines replaced by deoxynucleotides, SEQ ID NO. 50 (AGAUGAUAGAAGGUUAGAAUCCUUCACGCCGC; guide RNA; No RNA residues, remaining riboadenosines replaced by deoxynucleotides, other modifications not given here)
RNase P-mediated cleavage activity compared to the all-RNA control (Substrate RNA (SUB-156)): Significant reduction in activity

INNO-124: SEQ ID NO. 2, 2'-O-methyl arms, variable loop, T stem and first 5'-U of T loop (CGAUACGGAAGGUUCGAAUCCUUCCCAGGAC; 2'-O-methyl modifications, chemistry not fully specified)
efficiency of RNase P-mediated target cleavage relative to the wild-type EGS [2]: most pronounced decrease in cleavage efficiency

INNO-126: SEQ ID NO. 2, 2'-O-methyl arms, variable loop, T stem and third 5'-C of T loop (CGAUACGGAAGGUUCGAAUCCUUCCCAGGAC; 2'-O-methyl modifications, chemistry not fully specified)
efficiency of RNase P-mediated target cleavage relative to the wild-type EGS [2]: most pronounced decrease in cleavage efficiency

INNO-149: SEQ ID NO. 3, 2'-O-methyl arms and T stem, phosphorothioate T loop, 3'-amino group (CGAUGAAGGUUCGAAUCCUUCCCAGGAC; 2'-O-methyl, phosphorothioate T loop, 3'-amino, chemistry not fully specified)
RNase P-mediated cleavage of 2.1 kb HBV RNA (2.1 kb HBV RNA): capable of inducing RNase P-mediated cleavage; also recorded: mostly cleaved
RNase P-mediated cleavage of 2.1 kb HBV RNA (2.1 kb HBV RNA; listed as analogue 149): more effective than analogue 155
